# Assays:
# [1] = system: HT29 cells; experiment: In vitro cytotoxicity (MTT cell viability); assay type: cell-based, human; conditions: 24 hours
# Procedure: HT29 cells were seeded at low density of 1×10^4 cells per well in 96 well-plates in medium containing high glucose DMEM, 10% FBS, 1% sodium pyruvate, 1% Penicillin, Streptomycin, and Neomycin.
# (§1) Drug effect on cellular viability was evaluated using an assay based on the cleavage of the yellow dye 3-(4, 5-dimethyl-2-thiazolyl)-2, 5-diphenyl-2H-tetrazolium bromide (MTT) to purple formazan crystals by dehydrogenase activity in mitochondria.
# (§2) After drug treatment for 24 hours, medium was removed and cell layers were rinsed with medium following MTT diluted (0.5 mg/ml) in medium for 4 hours at 37° C. incubator (5% CO2).
# (§3) The cells were then added with 100 μl/well DMSO and the optical density of the cellular homogenate was measured at 570 nm using ELISA reader.
# (§4) The fraction of live cells was calculated by dividing the mean optical density obtained from treated cells by the mean optical density from untreated control cells.
# (§5) After drug treatment for 24 hr, medium was removed and cell layers were rinsed with medium following MTT diluted (0.5 mg/ml) in medium for 4 hours at 37° C. incubator (5% CO2).
# Drug effect on cellular viability was evaluated using an assay based on the cleavage of the yellow dye 3-(4,5-dimethyl-2-thiazolyl)-2,5-diphenyl-2H-tetrazolium bromide (MTT) to purple formazan crystals by dehydrogenase activity in mitochondria.
# [2] = system: HCT15 cells; experiment: In vitro cytotoxicity (MTT cell viability); assay type: cell-based, human; conditions: 24 hours
# Procedure: HCT15 cells were seeded at low density of 1×10^4 cells per well in 96 well-plates in medium containing DMEM/F12, 10% FBS, 1% sodium pyruvate, 1% Penicillin, Streptomycin, and Neomycin.
# as §1, §2, §3, §4, §5
# [3] = Body weight in xenograft nude mice model; assay type: in vivo, BALB/c athymic (nu+/nu+) mice; conditions: HT29 xenograft mice; 1.5 mg/kg Nimesulide or equivalent, tail vein, within 24 days
# Procedure: 3. Tumor sizes and body weight were measured every 3 or 5 days for the duration of the experiment.
# 6. Mice were administered via tail vein injections at doses of Nimesulide (1.5 mg/kg), HA-Nimesulide (equivalent to 1.5 mg/kg of Nimesulide) or PBS respectively with an interval of 48 or 72 hours.
# 7. The tumor size and change in body weight of each mouse were recorded.
# [4] = Adhesion of fluorescent HA (HA-f) in colon tissue (IVIS image system); set-up: species or system SD-rat (Sprague-Dawley Rat); conditions: 0.5% HA-f, 2 hours
# Procedure: 1. 0.25 g high molecule weight sodium hyaluronate powder (HHA; Mw: 2 MDa; Freda) and 0.25 g low molecule weight sodium hyaluronate powder (LHA; Mw: 0.35 MDa; Freda) were added into 50 ml PBS buffer (Phosphate buffered saline) respectively to form 0.5% solution, and then stirred for 6 hours until the powder was totally dissolved. 0.25 g medium molecule weight sodium hyaluronate powder (MHA; Mw: 1 MDa; Freda) was added into 50 ml PBS buffer, and then stirred for 6 hours until the powder was totally dissolved and ready for use in the following steps.
# 2. Fluorescent HA (HA-f) was prepared by (1) 0.39 g MES free acid (2-(N-morpholino) ethanesulfonic acid, Calbiochem) and was dissolved in 100 ml dd water. (2) Solution A: 65 mg fluroresceinamine powder, (isomer I, Fluka) was dissolved in 9 ml 95% EtOH solution and then stirred for 10 minutes under a condition that light was prohibited. […] (8) The product after reaction was poured into a dialysis tubing (MW: 12000˜14000) in 5 L dd water as a dialysis solution and then stirred for 5 days at 4° C. under a condition that light was prohibited with dialysis solution being changed every 12 hours until the dialysis solution had no fluorescence. […]
# 7. All values are calculated as means of n observations. The histological index was analyzed by Student's t-test.
# [5] = Lenalidomide series, 3.125-400 μM
# [6] = Nimesulide series, 3.125-200 μM
compound,measurement,setting,value
Nc1cccc2c1CN(C1CCC(=O)NC1=O)C2=O (stereo not shown) [Lenalidomide],"cytotoxicity effect (cell viability, MTT)",[1]; [5],almost the same in both cell lines
same,"cytotoxicity effect (cell viability, MTT)",[2]; [5],almost the same in both cell lines
"CS(=O)(=O)Nc1ccc([N+](=O)[O-])cc1Oc1ccccc1 [NiNO2, Nimesulide]","cytotoxicity effect (cell viability, MTT)",[1]; [6],generally better than modified production
same,"cytotoxicity effect (cell viability, MTT)",[2]; [6],generally better than modified production
same,average body weight,[3],almost the same
sodium hyaluronate [1 MDa HA],fluorescent index of adhesion,[4]; normal or injured colon tissues,higher than 2 MDa HA
sodium hyaluronate [350 KDa HA],fluorescent index of adhesion,"[4]; injured colon tissues, normal colon tissue defined as 1",obviously higher than HAs of the other two average molecular weights

# — patent US11229665B2, “Compound of glycosaminoglycan and its fabrication method as well as application” (Holy Stone Healthcare Co., Ltd., priority 2013, dated 2022)
